Where two headings read alike, the source gives them in different places.
What was measured:
[1] = test system: NHEK (normal human epidermal keratinocytes); assay: Minimal growth assay: metabolic activity by resazurin assay of NHEK cultivated in minimal growth medium (MGM) plus test compound; format: cell-based; conditions: for metabolic activity/cell number compared to the MGM control: highest value of the dose-dependent increase; for dose-depending increase of metabolic activity/cell number compared to the MGM control: 48 h and 72 h, increasing concentrations in MGM; for activity at 100 µM: 100 µm test compound
Method: Metabolic activity was measured by a resazurin assay. In this assay, non-fluorescent resazurin is reduced to fluorescent resorufin in viable cells only. The resulting signal is proportional to the number of cells present and, thus, is an indirect measure of cell number. The assay was carried out by diluting a resazurin (Sigma) stock solution (0,1 mg/ml in PBS) in the respective culture medium at a ratio of 1:11. The resazurin conversion to the fluorescent resorufin by metabolically active cells was recorded at 560Ex/590Em nm using a Synergy™ H4 plate reader (BioTek Instruments). Mean values of relative fluorescence/luminescence units (RFU/RLU) and standard deviation of replicates were analysed by Gene5 software. […] Statistical significance was assessed by comparing mean (+/-SD) values with Student's t-test for independent groups. NHEK were seeded at 30.000 cells/cm^2 into 48-well flat bottom tissue culture plates and cultured in normal keratinocyte growth medium ("GM") at 37°C and 5% CO2. After 12 to 15 h (typically over night) the media was exchanged to MGM with different concentrations of test compound. Controls receive MGM without compounds. Test compounds 1 to 4 (1: […] Ca^2+-pantothenate; 4: folic acid) were prepared according to Table 1 to yield respective stock solutions. The stock solutions were further diluted in minimal growth media (MGM) to obtain different test compound concentrations. […] The negative control wells contained media only plus the respective solvent. Table 1. Test compound and control solutions […] The test compounds were dissolved in DMSO, diluted into MGM and added to the cells. 4 to 6 replicates/concentration were tested. […] Metabolic activity after 48 h (see FIG. 4) and 72 h after incubation (see FIG. 5) was determined by the resazurin assay, and proliferation after 48 h and 72 h after incubation was measured using the CyQuant® Direct Cell Proliferation Assay kit (data not shown).

[2] = test system: NHEK (normal human epidermal keratinocytes); assay: Minimal growth assay: proliferation by DNA amount (CyQuant Direct Cell Proliferation Assay kit) of NHEK in MGM plus test compounds; format: cell-based; conditions: NHEK in MGM plus single compound or combination; MGM control set 100%
Method: Alternatively, cell number was directly assessed by measuring the amount of DNA using the CyQuant® Direct Cell Proliferation Assay kit (Invitrogen). In brief, the two CyQuant® kit solutions were mixed and added to the respective culture medium as described by the supplier. The fluorescence of the DNA intercalating CyQuant® Dye, representing the amount of cells, was recorded at 480Ex/535Em nm using a Synergy™ H4 plate reader (BioTek Instruments). Increase of the number of cells is used as indirect indicator of cell proliferation.
Mean values of relative fluorescence/luminescence units (RFU/RLU) and standard deviation of replicates were analysed by Gene5 software. For a better estimation of test compound's potential metabolic activity and proliferation measured in MGM were set as 100%. Statistical significance was assessed by comparing mean (+/-SD) values with Student's t-test for independent groups.
For measurements of metabolic activity and proliferation, NHEK were seeded at 30,000 cells/cm^2 into a 48-well microtiter flat bottom plate. After over night incubation growth medium 2 was replaced by BM, MGM, and MGM plus test compounds. The test compounds were dissolved in DMSO, diluted into MGM and added to the cells. 4 to 6 replicates/concentration were tested. […]

[3] = after 48 h, MGM control set 100%
[4] = after 72 h, MGM control set 100%
[5] = Homo sapiens, NHEK, after 72 h, MGM control set 100%, read-out: metabolic activity compared to the MGM control

SMILES	metabolic activity/cell number compared to the MGM control [1, 3]	metabolic activity/cell number compared to the MGM control [1, 4]	proliferation (DNA amount) compared to the MGM control [2] [%]	dose-depending increase of metabolic activity/cell number compared to the MGM control [1]	activity at 100 µM ([1]; Homo sapiens, NHEK, after 48 h, MGM control set 100%, read-out: metabolic activity compared to the MGM control) [%]	activity at 100 µM [1, 5] [%]	activity at 5 µM ([1]; Homo sapiens, NHEK, 5 µm test compound, after 48 h, MGM control set 100%, read-out: metabolic activity compared to the MGM control) [%]
N[C@@H](CSSC[C@H](N)C(=O)O)C(=O)O [L-cystine]	up to 265%	up to 419%	282	–	–	–	–
Cc1ncc(C[n+]2csc(CCO)c2C)c(N)n1 [Thiamin, thiamine]	up to 138%	up to 163%	–	–	–	–	–
Nc1nc2ncc(CNc3ccc(C(=O)N[C@@H](CCC(=O)O)C(=O)O)cc3)nc2c(=O)[nH]1 [folic acid]	–	–	–	did not demonstrate a dose-depending increase	113	118	–
CC(C)(CO)[C@@H](O)C(=O)NCCC(=O)O [pantothenate, Ca^2+-pantothenate]	–	–	–	did not show a dose-depending increase	–	110	111
